In patent US7186534B1 (The Trustees of Columbia University in the City of New York, priority 1997, dated 2007):
Entries after “also recorded” stand apart in the source; their conditions may differ. Where two headings read alike, the source gives them in different places.

Legend:
[1] = target: T1, human 9-cis retinol dehydrogenase (9cRDH) (Homo sapiens, UniProt Q92781); test: Inhibition of recombinant human 9cRDH activity (9-cis-retinol oxidation, CHO cell homogenate, HPLC); type: biochemical; details: for influence of SCAD/alcohol dehydrogenase inhibiting reagents on recombinant human 9cRDH activity: carbenoxolone 0.5 mM, all others 1 mM; for inhibition of human 9cRDH activity (in words) / IC50: 10 μM 9-cis-retinol; for IC50: 15 min, 37° C., CHO cell homogenate, read-out: Estimated inhibitor concentration resulting in 50% inhibition of human 9-cis retinol dehydrogenase activity (ID50)
T1 sequence (Q92781 1-318): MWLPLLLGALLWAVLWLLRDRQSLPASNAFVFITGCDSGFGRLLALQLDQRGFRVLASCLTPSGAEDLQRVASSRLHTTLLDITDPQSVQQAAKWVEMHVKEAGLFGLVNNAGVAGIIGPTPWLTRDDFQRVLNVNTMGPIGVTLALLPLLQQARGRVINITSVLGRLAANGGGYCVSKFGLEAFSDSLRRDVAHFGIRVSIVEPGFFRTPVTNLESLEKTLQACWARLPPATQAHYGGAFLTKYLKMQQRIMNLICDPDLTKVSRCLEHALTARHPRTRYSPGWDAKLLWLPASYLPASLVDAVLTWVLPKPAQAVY

mouse 9cRDH = target: T2, mouse 9cRDH (Mus musculus, UniProt O55240); test: Inhibition of recombinant mouse 9cRDH activity (9-cis-retinol oxidation, CHO cell homogenate, HPLC); type: biochemical; details: for influence of SCAD/alcohol dehydrogenase inhibiting reagents on recombinant mouse 9cRDH activity: carbenoxolone 0.5 mM, all others 1 mM; for inhibition of mouse 9cRDH activity (in words): 10 μM 9-cis-retinol
T2 sequence (O55240 1-318): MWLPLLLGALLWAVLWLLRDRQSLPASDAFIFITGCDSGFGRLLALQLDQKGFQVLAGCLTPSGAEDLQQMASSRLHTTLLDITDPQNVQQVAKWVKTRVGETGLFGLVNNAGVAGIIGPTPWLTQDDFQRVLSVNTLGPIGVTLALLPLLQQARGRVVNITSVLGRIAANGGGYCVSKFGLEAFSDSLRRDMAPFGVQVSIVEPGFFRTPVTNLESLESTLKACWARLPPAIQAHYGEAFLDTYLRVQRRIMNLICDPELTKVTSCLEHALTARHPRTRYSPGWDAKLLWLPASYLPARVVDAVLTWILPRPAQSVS

[2] = 10 μM steroid, equimolar to substrate, forward (retinol oxidation) or reverse (retinaldehyde reduction) direction

Compound: C[C@]12CCC(=O)C=C1CC[C@@H]1[C@@H]2CC[C@]2(C)C(=O)CC[C@@H]12 [4-androstene-3,17dione]
- inhibition of human 9cRDH activity by hydroxysteroids [1, 2]: none of these hydroxysteroids inhibited
- inhibition of mouse 9cRDH activity by hydroxysteroids (mouse 9cRDH; [2]): none of these hydroxysteroids inhibited

Compound: Cc1cn[nH]c1 [4-methylpyrazole]
- influence of SCAD/alcohol dehydrogenase inhibiting reagents on recombinant human 9cRDH activity ([1]; phenylarsine oxide 15 μM): none of these compounds influenced
- influence of SCAD/alcohol dehydrogenase inhibiting reagents on recombinant mouse 9cRDH activity (mouse 9cRDH; phenylarsine oxide 15 μM): none of these compounds influenced

Compound: C[C@]12CCC(=O)C[C@@H]1CC[C@@H]1[C@@H]2CC[C@]2(C)C(=O)CC[C@@H]12 [5α-androstane-3,17dione]
- inhibition of human 9cRDH activity by hydroxysteroids [1]: none of these hydroxysteroids inhibited
- inhibition of mouse 9cRDH activity by hydroxysteroids (mouse 9cRDH): none of these hydroxysteroids inhibited

Compound: C[C@]12CC[C@H](O)C[C@@H]1CC[C@@H]1[C@@H]2CC[C@]2(C)[C@@H](O)CC[C@@H]12 [5α-androstane-3β, 17βdiol]
- inhibition of human 9cRDH activity by hydroxysteroids [1, 2]: none of these hydroxysteroids inhibited
- inhibition of mouse 9cRDH activity by hydroxysteroids (mouse 9cRDH; [2]): none of these hydroxysteroids inhibited

Compound: O=C(O)CN(CCN(CC(=O)O)CC(=O)O)CC(=O)O [EDTA]
- effect on 9cRDH activity expressed in CHO cells (first series) ([1]; NaCl up to 1 M, β-mercaptoethanol, dithiothreitol 1 mM, Triton X-100, sodium cholate 1% (w/v)): not inhibited

Compound: CCCCCCCC/C=C\CCCCCCCC(=O)O [Oleic Acid, oleic acid]
- times (fold) less potent than 13-cis retinoic acid as inhibitor of 9cRDH [1]: approximately 100
- inhibition of human 9cRDH activity (in words) [1]: mild inhibitor; also recorded: only very weak inhibitors; also recorded: weakly inhibited
- IC50 [1]: 15 µM
- inhibition of mouse 9cRDH activity (in words) (mouse 9cRDH): only very weak inhibitors

Compound: CCCCCCCC/C=C\CCCCCCCCO [Oleyl Alcohol, oleyl alcohol]
- inhibition of human 9cRDH activity (in words) [1]: did not inhibit; also recorded: only very weak inhibitors; also recorded: not an inhibitor
- IC50 [1]: > 100 µM
- inhibition of mouse 9cRDH activity (in words) (mouse 9cRDH): only very weak inhibitors

Compound: CCCCCCCCCCCCCCCC(=O)O [Palmitic Acid, palmitic acid]
- IC50 [1]: > 100 µM
- inhibition of human 9cRDH activity (in words) ([1]; listed as Palmitic acid): not an inhibitor
- inhibition of human 9cRDH activity (in words) ([1]; listed as palmitic acid): not inhibitory; also recorded: only very weak inhibitors
- inhibition of mouse 9cRDH activity (in words) (mouse 9cRDH): only very weak inhibitors

Compound: CCCCCCCCCCC/C=C\CCCCCO [Petroselinyl Alcohol, petroselinyl alcohol]
- inhibition of human 9cRDH activity (in words) [1]: did not inhibit; also recorded: not an inhibitor
- IC50 [1]: > 100 µM
- inhibition of human 9cRDH activity (in words) ([1]; listed as petrosenlinyl alcohol): only very weak inhibitors
- inhibition of mouse 9cRDH activity (in words) (mouse 9cRDH): only very weak inhibitors

Compound: CC1(C)[C@@H](OC(=O)CCC(=O)O)CC[C@]2(C)[C@H]3C(=O)C=C4[C@@H]5C[C@@](C)(C(=O)O)CC[C@]5(C)CC[C@@]4(C)[C@]3(C)CC[C@@H]12 [carbenoxolone]
- influence of SCAD/alcohol dehydrogenase inhibiting reagents on recombinant human 9cRDH activity ([1]; phenylarsine oxide 15 μM): none of these compounds influenced
- influence of SCAD/alcohol dehydrogenase inhibiting reagents on recombinant mouse 9cRDH activity (mouse 9cRDH; phenylarsine oxide 15 μM): none of these compounds influenced

Compound: CC(C)=CCCC(C)=CC=O [citral]
- influence of SCAD/alcohol dehydrogenase inhibiting reagents on recombinant human 9cRDH activity ([1]; […] 15 μM): none of these compounds influenced
- influence of SCAD/alcohol dehydrogenase inhibiting reagents on recombinant mouse 9cRDH activity (mouse 9cRDH; […] 15 μM): none of these compounds influenced

Compound: C[C@]12C[C@H](O)[C@H]3[C@@H](CCC4=CC(=O)CC[C@@]43C)[C@@H]1CC[C@@H]2C(=O)CO [corticosterone]
- inhibition of human 9cRDH activity by hydroxysteroids [1, 2]: none of these hydroxysteroids inhibited
- inhibition of mouse 9cRDH activity by hydroxysteroids (mouse 9cRDH; [2]): none of these hydroxysteroids inhibited

Compound: C[C@]12CCC(=O)C=C1CC[C@@H]1[C@@H]2C(=O)C[C@@]2(C)[C@H]1CC[C@]2(O)C(=O)CO [cortisone]
- inhibition of human 9cRDH activity by hydroxysteroids [1, 2]: none of these hydroxysteroids inhibited
- inhibition of mouse 9cRDH activity by hydroxysteroids (mouse 9cRDH; [2]): none of these hydroxysteroids inhibited

Compound: C[C@H](CCC(=O)[O-])[C@H]1CC[C@H]2[C@@H]3[C@H](O)C[C@@H]4C[C@H](O)CC[C@]4(C)[C@H]3C[C@H](O)[C@]12C.[Na+] [sodium cholate]
- effect on 9cRDH activity expressed in CHO cells (first series) [1]: rapidly inactivated

Compound: Triton X-100
- effect on 9cRDH activity expressed in CHO cells (first series) [1]: rapidly inactivated
